Results published in patent publication US8957108B2, “Use of 5,6-dimethylxanthenone-4-acetic acid as an antiviral agent” (University of Maryland, Baltimore, priority 2006, dated 2015).

Experiments:
MEFs = assay: RANTES protein in MEF supernatants; assay type: cell-based, mouse; details: MAVS+/+ and MAVS−/− MEFs, 24 h
Protocol: IFN-β protein in cell culture supernatants was measured using a custom ELISA originally described in Weinstein, S. L. et al. (2000) “Phosphatidylinositol 3-Kinase And mTOR Mediate Lipopolysaccharide-Stimulated Nitric Oxide Production In Macrophages Via Interferon-Beta,” J. Leukocyte Biol. 67:405-414, with few modifications. […] Plates were blocked with 10% FCS in 1×PBS for 2 h at room temperature. Samples and a murine IFN-β standard (NIH, Bethesda, Md.) were added to wells and incubated overnight at 4° C. […] Wells were washed 3× followed by incubation with a 1:2000 dilution of goat anti-rabbit HRP (Cell Signaling Technologies, Beverly, Mass.) in 10% FCS-PBS for 1 h at room temperature. Plates were washed 3× and developed with TMB substrate (KPL, Gaithersburg, Md.). The reaction was stopped by addition of 1N H2SO4, and plates were read at 450 nm. RANTES and TNF-α were quantified using Luminex bead-based colorimetric assays. […] For stimulation of cells, poly(I:C) was mixed with Fugene 6 transfection reagent (Roche) at a ratio of 1:1 (volume:weight) in OptiMEM medium and incubated for 15 min prior to stimulation. Culture supernatants of cells (2×10^4) seeded on 96-well plates were collected after 24 h stimulation and analyzed for RANTES levels with ELISA. ELISA was performed according to the manufacturer's instructions (R&D Systems).

peritoneal macrophages = assay: Quantitative real-time PCR of cytokine mRNA in murine peritoneal macrophages
IRF-3 = assay: Native-PAGE and Western blotting for IRF-3 dimers; assay type: cell-based, mouse; details: macrophages pretreated with SA
Protocol: Rabbit anti-mouse IκBα phospho-specific Ab (pAb) was purchased from Santa Cruz Biotechnology, Inc. (Santa Cruz, Calif.). Rabbit anti-mouse MAPK pAb and rabbit anti-human phospho-IRF-3 pAb antibodies were purchased from Cell Signaling (Danvers, Mass.). Rabbit anti-mouse IRF-3 pAb was purchased from Zymed (South San Francisco, Calif.). Native-PAGE for the detection of IRF-3 dimers was carried out as described in Iwamura, T. et al. (2001) “Induction Of IRF-3/-7 Kinase And NF-kappaB in Response To Double-Stranded RNA And Virus Infection: Common And Unique Pathways,” Genes and Cells 6:375-388. Briefly, thioglycollate-elicited peritoneal macrophages were lysed following stimulation with either LPS or DMXAA as indicated. […] Membranes were probed with a 1:250 dilution of rabbit anti-mouse IRF-3 for 1 h at room temperature. Goat anti-rabbit IgG-HRP (Cell Signaling Technologies, Danvers, Mass.) at a 1:2000 dilution was used as the secondary Ab. Blots were developed with ECL Plus (Amersham Biosciences, Piscataway, N.J.).

[1] = peritoneal macrophages pretreated with SA

Compound | RANTES response in MAVS-deficient MEFs (MEFs) | TNF-α mRNA in the absence of TLR4 (peritoneal macrophages; TLR4−/− peritoneal macrophages, 2 h) | IRF-3 dimer formation and phosphorylation of serine 396 in response to DMXAA (IRF-3) | effect on DMXAA-induced IFN-β expression (peritoneal macrophages; [1]) | effect on LPS-induced IFN-β mRNA expression (peritoneal macrophages; [1])
poly I:C [reference compound] | completely abrogates | induces TNF-α to wild-type levels |  |  | 
O=C(O)c1ccccc1O [SA, salicylic acid, reference compound] |  |  | inhibits | dramatically reduces | essentially unaffected
